Experimental data from patent publication US20250179047A1, “5-[7-(3,4-DIHYDRO-1H-ISOQUINOLINE-2-CARBONYL)-1,2,3,4 TETRAHYDROISOQUINOLIN-6-YL]-1H-PYRROLE-3-CARBOXAMIDE DERIVATIVES, PHARMACEUTICAL COMPOSITIONS CONTAINING THEM AND THEIR USES AS PRO-APOPTOTIC AGENTS” (LES LABORATOIRES SERVIER, priority 2022, published 2025).

Key:
KMS-12-PE Bcl-2 WT = test: In vitro cytotoxicity CellTiter-Glo 48 h, KMS-12-PE Bcl-2 WT; assay type: cell-based; conditions: Homo sapiens, KMS-12-PE, C50 = concentration needed to reach 50% of the cellular viability
Outline: (§1)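 Transduce KMS-12-PE with Bcl-2 WT or G101V lentivirus, then FACS-sort RFP-positive cells. Add compounds in an 11-point dilution series and incubate 48 h at 37 °C. Measure ATP-based luminescence with CellTiter-Glo and derive C50 (50% viability).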

BCLXL WT = BCLXL WT (Homo sapiens (Human), UniProt Q07817); test: TR-FRET competitive binding assay, BCLXL WT; conditions: for Ki: BCLXL WT, Ki determined from IC50, read-out: TR_FRET EKI BclxL; for TR_FRET EKI BCLxL/WT selectivty ratio: ratio Ki BCLxL / Ki BCL2 WT
Outline: (§2)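 Ki derived from IC50 (11-point dilution, 520/495 nm emission ratio) for displacing a fluorescein-labelled PUMA peptide (2 or 20 nM). Target was 0.5 nM E. coli-expressed Halo-tagged BCL2 (1-207) or BCLXL (2-196), terbium-labelled on Halo. Incubation 2 h at 23°C in pH 7.5 Hepes with 150 mM NaCl and 5% DMSO.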

BCL2 D103Y = BCL2 D103Y (Homo sapiens, UniProt P10415, D103Y); test: TR-FRET competitive binding assay, BCL2 D103Y; conditions: Ki determined from IC50, read-out: TR_FRET EKI_Bcl2 D103Y
Outline: as §2

BCL2 F104I = BCL2 F104I (Homo sapiens, UniProt P10415, F104I); test: TR-FRET competitive binding assay, BCL2 F104I; conditions: Ki determined from IC50, read-out: TR_FRET EKI_Bcl2 F104I
Outline: as §2

KMS-12-PE Bcl-2 G101V = test: In vitro cytotoxicity CellTiter-Glo 48 h, KMS-12-PE Bcl-2 G101V; assay type: cell-based; conditions: for Ratio (G101V/WT): C50 KMS-12-PE Bcl-2 G101V over C50 KMS-12-PE Bcl-2 WT; for IC50: Homo sapiens, KMS-12-PE, 48 h, CellTiter-Glo, C50 = concentration needed to reach 50% of the cellular viability
Outline: as §1

BCL2 G101V [1] = test: TR-FRET competitive binding assay, BCL2 G101V; design: species or system human; conditions: ratio Ki BCL2 G101V / Ki BCL2 WT
Outline: as §2

BCL2 G101V [2] = target: BCL2 G101V (Homo sapiens, UniProt P10415, G101V); test: TR-FRET competitive binding assay, BCL2 G101V; conditions: BCL2 G101V; Ki determined from IC50; read-out: TR_FRET EKI_Bcl2 G101V
Outline: as §2

BCL2 D111A = BCL2 D111A (Homo sapiens, UniProt P10415, D111A); test: TR-FRET competitive binding assay, BCL2 D111A; conditions: Ki determined from IC50, read-out: TR_FRET EKI_Bcl2 D111A
Protocol: The relative binding potency of each compound was determined in a competitive binding assay using time resolved-fluorescence resonance energy transfer (TR-FRET). The method utilised a fluorescein labelled peptide derived from PUMA (5Flu-Ahx-[…]-NH2 wherein Ahx means 6-hexanoic acid monomer and the amino acid sequence is referred to as SEQ ID:01) which binds to a terbium labelled BCL2 or BCLXL protein. The degree of binding or corresponding compound inhibition can be quantified by the TR-FRET signal between the terbium donor and fluorescein acceptor.
The human BCL2_wild-type (also named BCL2_wt), BCL2_G101V mutant and BCLXL_wild-type were E. coli expressed as a N-terminal Halo-fusion proteins and singly labelled with Terbium on the Halo protein to afford the following amino acid sequences:
wherein the BCL2(1-207) sequence corresponds to UniProtKB® primary accession number P10415 and the BCLXL(2-196) sequence corresponds to UniProtKB® primary accession number Q07817-1.
The assay was performed in a 40 μL volume in white 384-standard well plates (Corning #3574). An 11-point serial dilution of each compound was prepared in DMSO and transferred directly to plate followed by addition of fluorescein labelled peptide and lastly protein. Final assay conditions were 0.5 nM BCL2_wt, BCL2_G101V, BCL2_D103Y, BCL2_F104I, BCL2_D111A or BCLXL_wt, 2 or 20 nM fluorescein labelled peptide, 50 mM Hepes pH 7.5, 150 mM NaCl, 0.5 mM TCEP (Tris(2-carboxyethyl)phosphine), 0.05% Tween 20, 5% DMSO. The mixture was incubated for 2 hours at 23° C.
TR-FRET measurements were performed on a Biotek Synergy Neo plate reader. TR-FRET was measured by excitation of the Terbium-donor at 340 nm and subsequent (delay time 100 μs) measurement of terbium and fluorescein emission at 495 nm and 520 nm, respectively, over a collection time of 300 μs. The TR-FRET signal was calculated as the emission-ratio at 520 nm over 495 nm.
The TR-FRET ratio readout for test compounds was normalized against 0% inhibition controls wells and 100% inhibition control wells. Test compound potency (IC50) was estimated by nonlinear regression using the sigmoidal dose-response (variable slope) using Xlfit 4 (IDBS, Guildford, Surrey, UK, model 205). Were the IC50 could not be determined the % inhibition at the highest tested concentration is given.
y=(A+((B−A)/(1+((C/x)^D))))
where y is the normalized TR-TRET ratio measurement for a given concentration of test compound, x is the concentration of test compound, A is the estimated efficacy (% inhibition) at infinite compound dilution, and B is the maximal efficacy (% inhibition). C is the IC50 value and D is the Hill slope coefficient.
The K1 values were determined from the IC50 values according to Cer et al, Nucleic Acids Res, 2009, July 1; 37 (WebServer issue): W441-W445.

BCL2 WT = BCL2 WT (Homo sapiens (Human), UniProt P10415); test: TR-FRET competitive binding assay, BCL2 WT; conditions: Ki determined from IC50, read-out: TR_FRET EKI_Bcl2 WT
Outline: as §2

Chain of BCLXL WT (Q07817 other isoform, or with tags, fused parts or gaps): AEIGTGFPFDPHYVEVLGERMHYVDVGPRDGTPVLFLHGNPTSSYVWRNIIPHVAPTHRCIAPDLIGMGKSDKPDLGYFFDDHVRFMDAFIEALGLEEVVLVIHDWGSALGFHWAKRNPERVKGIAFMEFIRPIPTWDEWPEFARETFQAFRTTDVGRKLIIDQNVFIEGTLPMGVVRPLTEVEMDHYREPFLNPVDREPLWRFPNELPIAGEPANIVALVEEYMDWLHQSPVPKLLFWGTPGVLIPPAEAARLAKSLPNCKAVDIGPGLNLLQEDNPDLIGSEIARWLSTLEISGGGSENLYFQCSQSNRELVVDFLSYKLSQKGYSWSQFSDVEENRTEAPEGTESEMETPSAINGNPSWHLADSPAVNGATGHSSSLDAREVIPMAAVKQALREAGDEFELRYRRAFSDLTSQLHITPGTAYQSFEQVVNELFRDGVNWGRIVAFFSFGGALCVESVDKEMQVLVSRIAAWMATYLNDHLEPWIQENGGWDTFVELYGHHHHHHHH

| Ki (BCLXL WT) [nM] | TR_FRET EKI BCLxL/WT selectivty ratio (BCLXL WT) | Ki (BCL2 D103Y) [nM] | Ki (BCL2 F104I) [nM] | TR_FRET EKI G101V/WT selectivty ratio (BCL2 G101V [1]) | Ki (BCL2 G101V [2]) [nM] | Ki (BCL2 D111A) [nM] | Ki (BCL2 WT) [nM] | Compound | IC50 (KMS-12-PE Bcl-2 WT) [µM] | Ratio (G101V/WT) (KMS-12-PE Bcl-2 G101V) | IC50 (KMS-12-PE Bcl-2 G101V) [µM] |
| --- | --- | --- | --- | --- | --- | --- | --- | --- | --- | --- | --- |
| 2.2 | 36.1 | 0.35 | 1.34 | 8.5 | 0.5 | 0.24 | 0.06 | Cc1c(N(C(=O)c2cc(-c3cc4c(cc3C(=O)N3Cc5ccccc5C[C@H]3CN3CCCCC3)CN(C(=O)Cc3ccc(Cl)cc3F)CC4)n(C)c2C)c2ccc(O)cc2)cc(C#N)n1C [Example 44, 5-{2-[2-(4-chloro-2-fluorophenyl)acetyl]-7-{[(3S)-3-(piperidin-1-ylmethyl)-3,4-dihydro-1H-isoquinolin-2-yl]carbonyl}-3,4-dihydro-1H-isoquinolin-6-yl}-N-(5-cyano-1,2-dimethylpyrrol-3-yl)-N-(4-hydroxyphenyl)-1,2-dimethylpyrrole-3-carboxamide] | 0.0073 | 12.2 | 0.0886 |
| 1.5 | 10.7 | 0.23 | 0.35 | 2.4 | 0.3 | 0.2 | 0.14 | Cc1c(N(C(=O)c2cc(-c3cc4c(cc3C(=O)N3Cc5ccccc5C[C@H]3C)CN(C(=O)Cc3ccc(OCCN5CCOCC5)cc3Cl)CC4)n(C)c2C)c2ccc(O)cc2)cc(C#N)n1C [Example 46, 5-[2-(2-{2-chloro-4-[2-(morpholin-4-yl)ethoxy]phenyl}acetyl)-7-[(3R)-3-methyl-1,2,3,4-tetrahydroisoquinoline-2-carbonyl]-1,2,3,4-tetrahydroisoquinolin-6-yl]-N-(5-cyano-1,2-dimethyl-1H-pyrrol-3-yl)-N-(4-hydroxyphenyl)-1,2-dimethyl-1H-pyrrole-3-carboxamide] | 0.0051 | 5 | 0.0256 |
| 2 | 18.9 | 0.24 | 0.46 | 2.0 | 0.2 | 0.16 | 0.11 | Cc1c(N(C(=O)c2cc(-c3cc4c(cc3C(=O)N3Cc5ccccc5C[C@H]3C)CN(C(=O)Cc3ccc(OCCN5CCN(CC(F)F)CC5)cc3)CC4)n(C)c2C)c2ccc(O)cc2)cc(C#N)n1C [Example 47, N-(5-cyano-1,2-dimethyl-1H-pyrrol-3-yl)-5-{2-[2-(4-{2-[4-(2,2-difluoroethyl)piperazin-1-yl]ethoxy}phenyl)acetyl]-7-[(3R)-3-methyl-1,2,3,4-tetrahydroisoquinoline-2-carbonyl]-1,2,3,4-tetrahydroisoquinolin-6-yl}-N-(4-hydroxyphenyl)-1,2-dimethyl-1H-pyrrole-3-carboxamide] | 0.008 | 4.5 | 0.0362 |

The remaining lines, values behind:

| Compound | Ki (BCLXL WT) [nM] | TR_FRET EKI BCLxL/WT selectivty ratio (BCLXL WT) | Ki (BCL2 D103Y) [nM] | Ki (BCL2 F104I) [nM] | TR_FRET EKI G101V/WT selectivty ratio (BCL2 G101V [1]) | Ki (BCL2 G101V [2]) [nM] | Ki (BCL2 D111A) [nM] | Ki (BCL2 WT) [nM] | IC50 (KMS-12-PE Bcl-2 WT) [µM] | Ratio (G101V/WT) (KMS-12-PE Bcl-2 G101V) | IC50 (KMS-12-PE Bcl-2 G101V) [µM] |
| --- | --- | --- | --- | --- | --- | --- | --- | --- | --- | --- | --- |
| Cc1c(N(C(=O)c2cc(-c3cc4c(cc3C(=O)N3Cc5ccccc5C[C@H]3C)CN(C(=O)Cc3ccc(OCCN5CCN(C6CC6)CC5)cc3)CC4)n(C)c2C)c2ccc(O)cc2)cc(C#N)n1C [Example 31, N-(5-cyano-1,2-dimethyl-1H-pyrrol-3-yl)-5-[2-(2-{4-[2-(4-cyclopropylpiperazin-1-yl)ethoxy]phenyl}acetyl)-7-[(3R)-3-methyl-1,2,3,4-tetrahydroisoquinoline-2-carbonyl]-1,2,3,4-tetrahydroisoquinolin-6-yl]-N-(4-hydroxyphenyl)-1,2-dimethyl-1H-pyrrole-3-carboxamide] | 1.3 | 11.8 | 0.4 | 0.52 | 2.6 | 0.3 | 0.26 | 0.11 | 0.0077 | 4.05 | 0.0312 |
| Cc1c(N(C(=O)c2cc(-c3cc4c(cc3C(=O)N3Cc5ccccc5C[C@H]3C)CN(C(=O)Cc3ccc(OCCN(C)C5CC5)cc3)CC4)n3c2CCCC3)c2ccc(O)cc2)cc(C#N)n1C [Example 35, N-(5-cyano-1,2-dimethyl-pyrrol-3-yl)-3-[2-[2-[4-[2-[cyclopropyl(methyl)amino]ethoxy]phenyl]acetyl]-7-[(3R)-3-methyl-3,4-dihydro-1H-isoquinoline-2-carbonyl]-3,4-dihydro-1H-isoquinolin-6-yl]-N-(4-hydroxyphenyl)-5,6,7,8-tetrahydroindolizine-1-carboxamide] | 2.6 | 10.0 | 1.35 | 0.77 | 2.6 | 0.7 | 0.27 | 0.26 | 0.0068 | 3.75 | 0.0254 |
| Cc1c(N(C(=O)c2cc(-c3cc4c(cc3C(=O)N3Cc5ccccc5C[C@H]3C)CN(C(=O)Cc3ccc(OCCN5CCN6CCOC[C@@H]6C5)cc3)CC4)n(C)c2C)c2ccc(O)cc2)cc(C#N)n1C [Example 36, 5-{2-[2-(4-{2-[(9aS)-octahydropyrazino[2,1-c][1,4]oxazin-8-yl]ethoxy}phenyl)acetyl]-7-[(3R)-3-methyl-1,2,3,4-tetrahydroisoquinoline-2-carbonyl]-1,2,3,4-tetrahydroisoquinolin-6-yl}-N-(5-cyano-1,2-dimethyl-1H-pyrrol-3-yl)-N-(4-hydroxyphenyl)-1,2-dimethyl-1H-pyrrole-3-carboxamide] | 1.4 | 12.7 | 0.33 | 0.16 | 2.5 | 0.3 | 0.06 | 0.11 | 0.0103 | 3.75 | 0.0386 |
| Cc1c(N(C(=O)c2cc(-c3cc4c(cc3C(=O)N3Cc5ccccc5C[C@H]3C)CN(C(=O)Cc3ccc(CCN5CCOCC5)cc3)CC4)n(C)c2C)c2ccc(O)cc2)cc(C#N)n1C [Example 38, N-(5-cyano-1,2-dimethylpyrrol-3-yl)-N-(4-hydroxyphenyl)-1,2-dimethyl-5-(7-{[(3R)-3-methyl-3,4-dihydro-1H-isoquinolin-2-yl]carbonyl}-2-(2-{4-[2-(morpholin-4-yl)ethyl]phenyl}acetyl)-3,4-dihydro-1H-isoquinolin-6-yl)pyrrole-3-carboxamide] | 1 | 10.0 | 0.32 | 0.82 | 4.8 | 0.5 | 0.15 | 0.1 | 0.0091 | 5.57 | 0.0509 |
